System: mixed muscle protein synthesis
Test: Fractional synthetic rate of mixed muscle protein synthesis in anaesthetized rats after intravenous infusion of amino acid compositions
Assay type: in vivo
Description: Four groups of anaesthetized rats were given an amino acid composition. The same total amount of amino acids was given to each group by intravenous infusion. A fifth group was added to the study as a control group. The first group was given a balanced mixture of amino acids, commercially available under the trade name Travasol. This mixture contains less than 5% leucine. The second group was given 75% of Travasol and 25% of leucine. The third group was given 65% of Travasol and 35% of leucine, and the fourth group was given only leucine. The in fractional synthetic rate of mixed muscle protein synthesis (FSR (%/h)) was measured as described by Ferrando et al., Am. J. Physiol., 275:E864-E871, 1998, the contents of which are incorporated herein by reference.

CC(C)C[C@H](N)C(=O)O [Leucine alone, leucine]
response in protein production (administration of L-leucine alone, as shown in the appended examples): does not induce the desired response in protein production
FSR (%/h), fractional synthetic rate of mixed muscle protein synthesis (anaesthetized rats, intravenous infusion, same total amount of amino acids given to each group): 0.0767 ± 0.0204 %/h
